Reference: patent US20210284639A1, “TYROSINE AMIDE DERIVATIVES AS RHO- KINASE INHIBITORS” (CHIESI FARMACEUTICI S.p.A., priority 2018, published 2021)

Tests used:
ROCK 1 (Rho kinase 1) = ROCK 1 (Rho kinase 1) (Homo sapiens, UniProt Q13464); experiment: In vitro inhibitory activity assay (ADP-Glo), Rho kinase 1; type: biochemical; details: Ki by Cheng-Prusoff from IC50; 10 μM ATP, 25° C.
Description: (§1) In Vitro Inhibitory Activity Assay Description
(§2) The effectiveness of compounds of the present invention to inhibit Rho kinase activity can be determined in a 10 μl assay containing 40 mM Tris pH7.5, 20 mM MgCl2 0.1 mg/ml BSA, 50 μM DTT and 2.5 μM peptide substrate (Myelin Basic Protein) using an ADP-Glo kit (Promega). Compounds were dissolved in DMSO such that the final concentration of DMSO was 1% in the assay. All reactions/incubations are performed at 25° C. Compound (2 μl) and either Rho kinase 1 or 2 (4 μl) were mixed and incubated for 30 mins. Reactions were initiated by addition of ATP (4 μl) such that the final concentration of ATP in the assay was 10 μM. After a 1 hour incubation 10 μl of ADP-Glo Reagent was added and after a further 45 minute incubation 20 μl of Kinase Detection Buffer was added and the mixture incubated for a further 30 minutes. The luminescent signal was measured on a luminometer. […] Compounds were tested in dose-response format and the inhibition of kinase activity was calculated at each concentration of compound. To determine the IC50 (concentration of compound required to inhibit 50% of the enzyme activity) data were fit to a plot of % inhibition vs Log10 compound concentration using a sigmoidal fit with a variable slope and fixing the maximum to 100% and the minimum to 0%. To determine the Ki values the Cheng-Prusoff equation was utilized (Ki=IC50/(1+[S]/Km).

ROCK 2 (Rho kinase 2) = ROCK 2 (Rho kinase 2) (Homo sapiens, UniProt O75116); experiment: In vitro inhibitory activity assay (ADP-Glo), Rho kinase 2; type: biochemical; details: Ki by Cheng-Prusoff from IC50; 10 μM ATP, 25° C.
ROCK 2 (Rho kinase 2), sequence (O75116 whole entry): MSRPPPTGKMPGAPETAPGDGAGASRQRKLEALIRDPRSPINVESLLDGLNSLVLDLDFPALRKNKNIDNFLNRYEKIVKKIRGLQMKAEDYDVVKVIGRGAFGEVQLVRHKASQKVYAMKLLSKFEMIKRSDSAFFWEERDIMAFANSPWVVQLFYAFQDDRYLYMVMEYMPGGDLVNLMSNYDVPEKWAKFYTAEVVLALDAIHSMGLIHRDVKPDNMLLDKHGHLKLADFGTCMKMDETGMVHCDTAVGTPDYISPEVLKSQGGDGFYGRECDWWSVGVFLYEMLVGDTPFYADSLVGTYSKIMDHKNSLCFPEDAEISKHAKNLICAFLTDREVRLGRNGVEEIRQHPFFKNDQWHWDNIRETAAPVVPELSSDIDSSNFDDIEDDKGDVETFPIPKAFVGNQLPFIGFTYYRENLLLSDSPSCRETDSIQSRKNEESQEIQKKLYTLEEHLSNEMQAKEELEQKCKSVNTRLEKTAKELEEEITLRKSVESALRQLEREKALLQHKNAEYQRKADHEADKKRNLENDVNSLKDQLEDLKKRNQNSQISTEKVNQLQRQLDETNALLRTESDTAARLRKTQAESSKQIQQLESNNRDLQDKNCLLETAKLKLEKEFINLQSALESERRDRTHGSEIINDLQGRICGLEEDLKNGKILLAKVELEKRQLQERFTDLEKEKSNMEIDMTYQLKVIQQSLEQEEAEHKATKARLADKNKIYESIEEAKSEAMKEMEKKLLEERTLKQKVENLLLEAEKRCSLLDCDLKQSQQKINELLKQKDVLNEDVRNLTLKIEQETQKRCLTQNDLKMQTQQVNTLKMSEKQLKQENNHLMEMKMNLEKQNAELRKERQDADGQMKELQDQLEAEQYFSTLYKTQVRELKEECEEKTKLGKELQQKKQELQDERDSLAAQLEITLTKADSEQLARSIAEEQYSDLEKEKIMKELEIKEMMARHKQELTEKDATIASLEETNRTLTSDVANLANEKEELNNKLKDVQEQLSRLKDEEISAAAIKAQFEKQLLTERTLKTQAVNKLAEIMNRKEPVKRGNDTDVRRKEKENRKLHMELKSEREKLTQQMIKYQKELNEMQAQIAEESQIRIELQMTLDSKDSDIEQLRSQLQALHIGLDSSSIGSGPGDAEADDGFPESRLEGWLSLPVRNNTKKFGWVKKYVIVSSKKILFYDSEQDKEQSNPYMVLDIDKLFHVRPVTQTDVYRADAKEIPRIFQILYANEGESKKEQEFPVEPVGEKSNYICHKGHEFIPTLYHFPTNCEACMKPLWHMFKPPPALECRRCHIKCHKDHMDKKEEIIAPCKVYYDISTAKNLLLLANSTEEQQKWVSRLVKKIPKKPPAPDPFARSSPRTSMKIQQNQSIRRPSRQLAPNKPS
Description: as §1, §2

ROCK 1 (Rho kinase 1), sequence (Q13464 whole entry): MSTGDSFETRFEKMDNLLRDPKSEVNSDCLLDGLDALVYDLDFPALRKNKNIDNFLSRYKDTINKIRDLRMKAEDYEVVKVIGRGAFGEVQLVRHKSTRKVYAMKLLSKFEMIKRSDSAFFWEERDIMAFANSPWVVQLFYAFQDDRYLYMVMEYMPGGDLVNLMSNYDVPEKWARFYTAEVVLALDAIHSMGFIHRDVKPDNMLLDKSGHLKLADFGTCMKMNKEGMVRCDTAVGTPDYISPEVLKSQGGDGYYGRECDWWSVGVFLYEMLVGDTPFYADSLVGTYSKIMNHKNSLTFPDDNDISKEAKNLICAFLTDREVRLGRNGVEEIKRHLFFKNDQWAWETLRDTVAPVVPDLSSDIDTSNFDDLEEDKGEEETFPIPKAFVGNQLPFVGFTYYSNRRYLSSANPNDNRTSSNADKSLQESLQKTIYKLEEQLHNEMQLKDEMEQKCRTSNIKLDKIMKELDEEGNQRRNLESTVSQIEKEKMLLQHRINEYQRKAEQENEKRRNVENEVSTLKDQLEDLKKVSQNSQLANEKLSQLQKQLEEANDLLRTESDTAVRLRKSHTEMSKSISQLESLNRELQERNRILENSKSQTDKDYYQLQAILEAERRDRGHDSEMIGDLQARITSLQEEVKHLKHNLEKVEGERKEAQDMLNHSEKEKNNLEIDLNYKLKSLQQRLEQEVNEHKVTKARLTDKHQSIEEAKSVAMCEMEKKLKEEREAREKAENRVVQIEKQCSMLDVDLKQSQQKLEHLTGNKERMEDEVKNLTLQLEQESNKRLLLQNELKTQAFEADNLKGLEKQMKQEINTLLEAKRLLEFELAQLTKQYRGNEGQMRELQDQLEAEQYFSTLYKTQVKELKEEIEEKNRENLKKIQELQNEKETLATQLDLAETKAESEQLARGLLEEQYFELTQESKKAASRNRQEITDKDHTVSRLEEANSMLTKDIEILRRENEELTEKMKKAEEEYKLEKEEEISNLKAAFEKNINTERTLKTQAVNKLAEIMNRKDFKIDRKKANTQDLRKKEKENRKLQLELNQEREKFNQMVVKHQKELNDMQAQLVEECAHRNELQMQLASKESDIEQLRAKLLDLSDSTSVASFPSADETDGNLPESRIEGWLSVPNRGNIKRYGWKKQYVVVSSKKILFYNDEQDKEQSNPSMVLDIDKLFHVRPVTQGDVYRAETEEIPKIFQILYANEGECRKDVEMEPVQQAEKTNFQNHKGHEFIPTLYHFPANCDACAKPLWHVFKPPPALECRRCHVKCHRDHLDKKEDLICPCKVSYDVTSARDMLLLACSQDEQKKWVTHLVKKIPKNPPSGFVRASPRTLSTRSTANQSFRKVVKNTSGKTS

| SMILES | Ki (ROCK 1 (Rho kinase 1)) [nM] | Ki (ROCK 2 (Rho kinase 2)) [nM] |
| --- | --- | --- |
| Cc1c[nH]c2nccc(Oc3ccc(C[C@H](N)C(=O)NC4(C(N)=O)CCC4)cc3F)c12 [Example 27, (S)-1-(2-Amino-3-(3-fluoro-4-((3-methyl-1H-pyrrolo[2,3-b]pyridin-4-yl)oxy)phenyl)propanamido)cyclobutane-1-carboxamide] | < 3 | < 3 |
| CNC(=O)C1(NC(=O)[C@@H](N)Cc2ccc(Oc3ccnc4[nH]cc(C)c34)c(F)c2)CCCC1 [Example 28, (S)-1-(2-amino-3-(3-fluoro-4-((3-methyl-1H-pyrrolo[2,3-b]pyridin-4-yl)oxy)phenyl)propanamido)-N-methylcyclopentane-1-carboxamide] | < 3 | < 3 |
| CNC(=O)C1(NC(=O)[C@@H](N)Cc2ccc(Oc3ccnc4[nH]cc(C)c34)c(F)c2)CCCCC1 [Example 29, (S)-1-(2-amino-3-(3-fluoro-4-((3-methyl-1H-pyrrolo[2,3-b]pyridin-4-yl)oxy)phenyl)propanamido)-N-methylcyclohexane-1-carboxamide] | < 3 | < 3 |
| Cc1c[nH]c2nccc(Oc3ccc(C[C@H](N)C(=O)NC4(CO)CCC4)cc3F)c12 [Example 30, (S)-2-amino-3-(3-fluoro-4-((3-methyl-1H-pyrrolo[2,3-b]pyridin-4-yl)oxy)phenyl)-N-(1-(hydroxymethyl)cyclobutyl)propanamide] | < 3 | < 3 |
| Cc1cccc(S(=O)(=O)C2CCN(C(=O)[C@@H](N)Cc3ccc(Oc4ccnc5[nH]cc(C)c45)c(F)c3)CC2)c1 [Example 31, (S)-2-Amino-3-(3-fluoro-4-((3-methyl-1H-pyrrolo[2,3-b]pyridin-4-yl)oxy)phenyl)-1-(4-(m-tolylsulfonyl)piperidin-1-yl)propan-1-one] | < 3 | < 3 |
| Cc1c[nH]c2ncnc(Oc3ccc(C[C@H](N)C(=O)NC4(C(N)=O)CCCCC4)cc3F)c12 [Example 32, (S)-1-(2-amino-3-(3-fluoro-4-((5-methyl-7H-pyrrolo[2,3-d]pyrimidin-4-yl)oxy)phenyl)propanamido)cyclohexanecarboxamide] | 3 to 30 | < 3 |
| CNC(=O)C1(NC(=O)[C@@H](N)Cc2ccc(Oc3ncnc4[nH]cc(C)c34)c(F)c2)CCCCC1 [Example 33, (S)-1-(2-amino-3-(3-fluoro-4-((5-methyl-7H-pyrrolo[2,3-d]pyrimidin-4-yl)oxy)phenyl)propanamido)-N-methylcyclohexanecarboxamide] | < 3 | < 3 |
| Cc1c[nH]c2ncnc(Oc3ccc(C[C@H](N)C(=O)NC4(CCO)CCCCC4)cc3F)c12 [Example 34, (S)-2-amino-3-(3-fluoro-4-((5-methyl-7H-pyrrolo[2,3-d]pyrimidin-4-yl)oxy)phenyl)-N-(1-(2-hydroxyethyl)cyclohexyl)propanamide] | < 3 | < 3 |
| Cc1c[nH]c2ncnc(Oc3ccc(C[C@H](N)C(=O)NC4(CO)CCCCC4)cc3F)c12 [Example 35, (S)-2-Amino-3-(3-fluoro-4-((5-methyl-7H-pyrrolo[2,3-d]pyrimidin-4-yl)oxy)phenyl)-N-(1-(hydroxymethyl)cyclohexyl)propanamide] | < 3 | < 3 |
| Cc1c[nH]c2ncnc(Oc3ccc(C[C@H](N)C(=O)NC4(CO)CCOCC4)cc3F)c12 [Example 36, (S)-2-Amino-3-(3-fluoro-4-((5-methyl-7H-pyrrolo[2,3-d]pyrimidin-4-yl)oxy)phenyl)-N-(4-(hydroxymethyl)tetrahydro-2H-pyran-4-yl)propanamide] | 3 to 30 | < 3 |
| Cc1c[nH]c2ncnc(Oc3ccc(C[C@H](N)C(=O)N4CCC(S(=O)(=O)c5ccc(F)cc5)CC4)cc3F)c12 [Example 37, (S)-2-Amino-3-(3-fluoro-4-((5-methyl-7H-pyrrolo[2,3-d]pyrimidin-4-yl)oxy)phenyl)-1-(4-((4-fluorophenyl)sulfonyl)piperidin-1-yl)propan-1-one] | < 3 | < 3 |
| Cc1c[nH]c2ncnc(Oc3ccc(C[C@H](N)C(=O)N4CC[C@H](S(=O)(=O)c5ccccc5)C4)cc3F)c12 [Example 38, (S)-2-Amino-3-(3-fluoro-4-((5-methyl-7H-pyrrolo[2,3-d]pyrimidin-4-yl)oxy)phenyl)-1-((S)-3-(phenylsulfonyl)pyrrolidin-1-yl)propan-1-one] | < 3 | < 3 |
| Cc1c[nH]c2ncnc(Oc3ccc(C[C@H](N)C(=O)NC4CCN(C5CC5)CC4)cc3F)c12 [Example 39, (S)-2-Amino-N-(1-cyclopropylpiperidin-4-yl)-3-(3-fluoro-4-((5-methyl-7H-pyrrolo[2,3-d]pyrimidin-4-yl)oxy)phenyl)propanamide] | < 3 | < 3 |
| CN1CCC(NC(=O)[C@@H](N)Cc2ccc(Oc3ccnc4[nH]cc(C5CC5)c34)c(F)c2)CC1 [Example 40, (S)-2-Amino-3-(4-((3-cyclopropyl-1H-pyrrolo[2,3-b]pyridin-4-yl)oxy)-3-fluorophenyl)-N-(1-methylpiperidin-4-yl)propanamide] | < 3 | < 3 |
| Cc1c[nH]c2ncnc(Oc3c(F)cc(C[C@H](N)C(=O)N4CCC(S(=O)(=O)c5ccccc5)CC4)cc3F)c12 [Example 41, (S)-2-Amino-3-(3,5-difluoro-4-((5-methyl-7H-pyrrolo[2,3-d]pyrimidin-4-yl)oxy)phenyl)-1-(4-(phenylsulfonyl)piperidin-1-yl)propan-1-one] | < 3 | < 3 |
| Cc1c[nH]c2nccc(Oc3c(F)cc(C[C@H](N)C(=O)N4CCC(S(=O)(=O)c5ccccc5)CC4)cc3F)c12 [Example 42, (S)-2-amino-3-(3,5-difluoro-4-((3-methyl-1H-pyrrolo[2,3-b]pyridin-4-yl)oxy)phenyl)-1-(4-(phenylsulfonyl)piperidin-1-yl)propan-1-one] | < 3 | < 3 |
| COCCNC(=O)C1(NC(=O)[C@@H](N)Cc2ccc(Oc3ccnc4[nH]cc(C)c34)c(F)c2)CCCCC1 [Example 43, (S)-1-(2-amino-3-(3-fluoro-4-((3-methyl-1H-pyrrolo[2,3-b]pyridin-4-yl)oxy)phenyl)propanamido)-N-(2-methoxyethyl)cyclohexanecarboxamide] | < 3 | < 3 |
| Cc1c[nH]c2nccc(Oc3ccc(C[C@H](N)C(=O)NC4(C(=O)NCCO)CCCCC4)cc3F)c12 [Example 44, (S)-1-(2-amino-3-(3-fluoro-4-((3-methyl-1H-pyrrolo[2,3-b]pyridin-4-yl)oxy)phenyl)propanamido)-N-(2-hydroxyethyl)cyclohexanecarboxamide] | < 3 | < 3 |
| Cc1c[nH]c2nccc(Oc3ccc(C[C@H](N)C(=O)N(C)C)cc3F)c12 [Example 45, (S)-2-amino-3-(3-fluoro-4-((3-methyl-1H-pyrrolo[2,3-b]pyridin-4-yl)oxy)phenyl)-N,N-dimethylpropanamide] | 3 to 30 | < 3 |
| CNC(=O)[C@@H](N)Cc1ccc(Oc2ccnc3[nH]cc(C)c23)c(F)c1 [Example 46, (S)-2-amino-3-(3-fluoro-4-((3-methyl-1H-pyrrolo[2,3-b]pyridin-4-yl)oxy)phenyl)-N-methylpropanamide] | < 3 | < 3 |
| Cc1c[nH]c2nccc(Oc3ccc(C[C@H](N)C(N)=O)cc3F)c12 [Example 47, (S)-2-amino-3-(3-fluoro-4-((3-methyl-1H-pyrrolo[2,3-b]pyridin-4-yl)oxy)phenyl)propanamide] | < 3 | < 3 |
